The values that follow come from patent EP0107988A2, “Imidazo (1,2-a)quinolines, their salts, their preparation, their use as medicaments and compositions containing them” (ROUSSEL-UCLAF, priority 1982, dated 1984).

The assay addresses récepteurs des benzodiazépines. The assay is described as follows: Benzodiazepine receptor affinity: [3H]flunitrazepam binding, modified method of Squires and Braestrup. The following applies: concentration inhibiting by 50 % the specific binding of 0,6 nanomoles (3H) flunitrazépam; rat forebrain membrane preparations; read-out: CI50 (the source's name). Set-up: species or system rats. The source says: L'affinité des composés pour les récepteurs des benzodiazépines a été évaluée en utilisant un radioligand/^3H/flunitra- zépam et la méthode de Squires et Braestrup (Nature, 1977, 266,732) modifiée.
Les valeurs ci-dessus sont les concentrations nanomolaires du produit testé qui inhibent dans une proportion de 50 % la liaison spécifique de 0,6 nanomoles (^3H) flunitrazépam tant de préparations de membranes de cerveaux antérieurs de rats (CI50) nanomoles.
For `CCc1ccc2c(c1)c(OC)cc1nc(C(OC(C)=O)c3ccccc3)cn12` (stereo not shown) [Exemple 1], the IC50 was determined as 5000 nM. Consider `CCc1ccc2c(c1)c(OC)cc1nc(C(=O)c3ccccc3)c(Br)n12` [Exemple 2, (1-bromo 7-éthyl 5-méthoxyimidazo/1,2-a/quinoléin-2-yl)phénylméthanone], for which the IC50 came out at 3200 nM. On to `CCc1ccc2c(c1)c(OC)cc1nc(C(=O)c3ccccc3)c(Cl)n12` [Exemple 3, (1-chloro 7-éthyl 5-méthoxyimidazo/1,2-a/quinoléin-2-yl)phénylméthanone], for which the IC50 came out at 975 nM. `CCc1ccc2c(c1)c(O)cc1nc(C(=O)c3ccccc3)cn12` [Exemple 4, 2-benzoyl 7-éthylimidazo/1,2-a/quinoléin-501]: the IC50 amounted to 430 nM.

As to `CCc1ccc2c(c1)c(OC)cc1nc(C(C)(O)c3ccccc3)cn12` (stereo not shown) [Exemple 5, 1-(7-éthyl 5-méthoxyimidazo/1,2-a/quinoléin-2-yl) 1-phényléthanol], the IC50 was 8000 nM.

Consider `CCc1ccc2c(c1)c(OC(C)=O)cc1nc(C(=O)c3ccccc3)cn12` [Exemple 6, Acétatede 2-benzoyl 7-éthylimidazo/1,2-a/quinoléin-2-vle], for which the IC50 was determined as 395 nM. Turning to `C=C(c1ccccc1)c1cn2c(cc(OC)c3cc(CC)ccc32)n1` [Exemple 7, Chlorhydratede 7-éthyl 5-méthoxy 2-(1-phénylvinyl) imidazo/1,2-a/quinoléine], the IC50 was 120 nM. On to `CCc1ccc2c(c1)c(OC)c(C)c1nc(C(=O)c3ccccc3)cn12` [Exemple 8, (7-éthyl 5-méthoxy 4-méthylimidazo/1,2-a/quinoléin-2-yl)phénylméthanone], for which the IC50 came to 7 nM. Regarding `CCc1ccc2c(c1)c(C)cc1nc(C(=O)c3ccccc3)cn12` [Exemple 9], the IC50 was found to be 250 nM.

Consider `CCc1ccc2c(c1)c(OC)c(CC)c1nc(C(=O)c3ccccc3)cn12` [Exemple 10, (4,7-diéthyl 5-méthoxyimidazo/1,2-a/quinoléin-2-yl) phénylméthanone], for which the IC50 was 135 nM.
